pIC50: −log10 of the molar value.
Tests used:
[1] = target: human prolyl oligopeptidase (Homo sapiens (Human), UniProt P48147); test: POP inhibition assay (Z-G-P-AMC substrate, fluorimetric); format: biochemical; settings: Conditions B: 100 mM Tris-acetate, 10 mM BSA, 1 mM DTT, pH 7.3, hPOP 10 nM; read-out: IC50, inhibition of human prolyl oligopeptidase, measured in conditions B
Experimental: Expression and Purification of Prolyl Oligopeptidase (POP)
POP was obtained by expression in E. coli and affinity purification using a His tail fusion according to a literature procedure (Tarragó T et al., ChemBioChem 2006; 7:827-33) summarized below:
hPOP expression: E. coli BL21 competent cells were transformed with pETM10 hPOP. To induce expression, a pre-culture of LB medium (50 mL) containing kanamycin (50 μg/mL) was inoculated with one colony and was grown overnight at 37° C. Next day, two cultures of LB medium (500 mL) were inoculated with the overnight culture (10 mL). The inoculated cultures were grown at 37° C. and 220 rpm until the OD595 was 1.2 (2.5-3 hours). IPTG was then added (final concentration of 1 mM) and induction was performed overnight at 25° C. Cells were harvested (3500 g, 15 min, 4° C.) and the pellet was suspended in suspension buffer (50 mL) [Tris-HCl pH 8 (50 mM), NaCl (300 mM), imidazole (1 mM)] and sonicated with use of four cycles (each consisting of 15 sec of sonication and 15 sec of rest) at an intensity of 50% and 0.5 pulses, the sample being kept on ice. After sonication, the sample was centrifuged (40 000 g, 30 min, 4° C.) and the supernatant was used immediately for POP purification. An ÁKTA explorer FPLC system was used for purification. The supernatant was applied at a flow of 1 mL/min to a HiTrapQuelating column (5 mL) previously equilibrated with 5 column volumes of suspension buffer. The column was washed with suspension buffer until the absorbance at 280 nm returned to basal level. The column was then rinsed with 5 volumes of washing buffer (50 mM Tris-HCl, pH 8, 300 mM NaCl, 30 mM imidazole). The elution was performed with 4 volumes of elution buffer (50 mM Tris-HCl, pH 8, 300 mM NaCl, 500 mM imidazole). Fractions (4 mL) were collected during the entire elution. POP activity was checked in all fractions and positive ones were analyzed by SDS-PAGE and stained with Biosafe Comassie Stain G-250. Positive fractions were collected and desalted by use of a HiPrep 26/10 Desalting column with Tris-HCl (50 mM, pH 8) as buffer. Recombinant hPOP was quantified with the Bio-Rad Protein Assay with BSA as standard. Aliquots of the recombinant enzyme were prepared and immediately frozen with liquid nitrogen and stored at −80° C.
POP activity was determined following the method described by Toide et al (Toide K et al., J. Pharmacol. Exp. Ther. 1995; 274:1370-8), using Z-G-P-AMC (N-benzyloxycarbonyl-Gly-Pro-methylcoumarinyl-7-amide) as POP substrate. The reactions were performed in 96-well microtiter plates, which allowed simultaneous monitoring of multiple reactions. For each reaction, activity buffer (134 μl, 100 mM Na/K phosphate buffer, pH 8.0) was pre-incubated for 15 min at 37° C. with hPOP (ranging from 20 to 60 nM, depending on the activity of the hPOP batch) and the corresponding new compound solution (3 μl). A stock solution of new compound was prepared in DMSO (100 mM), and dilutions were prepared from this stock solution with DMSO. Alternatively, the reactions were performed using another activity buffer (141 μL, 100 mM Tris-acetate, […], 1 mM DTT, pH 7.3), pre-incubating with hPOP (10 nM) and the corresponding new compound solution (3 μl) (Conditions B).
After preincubation, Z-G-P-AMC (10 μl, 3 mM in 40% 1,4-dioxane) was added (3 μl, 1.5 mM in 40% of 1,4-dioxane, in Conditions B), and the reaction was incubated for 1 hour at 37° C. The reaction was stopped by adding sodium acetate (150 μl, 1 M, pH 4) and the formation of AMC was measured fluorimetrically. The excitation and emission wavelengths were 360/40 and 485/20 nm, respectively.
Several concentration points (ranging from 25 μM to 400 μM) were measured for each compound. The inhibitory activity on prolyl oligopeptidase was calculated according to eq 1. For each new compound, the fluorescence in the presence (a) and in the absence of hPOP (b) was measured. […]

[2] = Parallel artificial membrane permeability assay (PAMPA); format: in vitro ADME; settings: 200 μM initial concentration, pH 7.4, 4 hours, room temperature; for Papp at 4 h, 200 μM: PAMPA, read-out: Effective permeability Pe
Experimental: Parallel artificial membrane permeability assay (PAMPA) described in Kansy M et al., J. Med. Chem. 1998; 41(7):1007-10 was used to determine the capacity of compounds to cross the Blood-Brain Barrier (BBB) by passive diffusion (Di L et al., Eur. J. Med. Chem. 2003; 38(3):223-32). The effective permeability (Pe) of the compounds was measured at an initial concentration of 200 μM. The buffer solution was prepared from a commercial concentrated one following the manufacturer's instructions. pH was adjusted to 7.4 using a 0.5 M NaOH solution. A stock solution of new compound was prepared in DMSO and diluted with buffer solution to a final 200 μM concentration (0.5% DMSO content). The PAMPA sandwich was separated and each donor well was filled with 200 μL of the compound solution. The acceptor plate was placed into the donor plate, ensuring that the underside of the membrane was in contact with buffer. 4 μL of the mixture of phospholipids (20 mg/mL) in dodecane was added to the filter of each well, and 200 μL of buffer solution was added to the each acceptor well. The plate was covered and incubated at room temperature in a saturated humidity atmosphere for 4 hours under orbital agitation at 100 rpm. After 4 hours, the contents of the acceptor and donor compartments were analyzed by HPLC: 150 μL of each well from the donor plate and 150 μL of each well from the acceptor plate were transferred to HPLC vials, injecting each sample into a reverse-phase C18 column (150 mm×4.6 mm×5 μm, 100 Å) (100 μL/injection from the acceptor wells, 10 μL/injection from the donor wells and for t0 references). Transport was also confirmed by MALDI-TOF spectrometry.
The phospholipid mixture used was a porcine polar brain lipid extract, provided by Avanti polar lipids, with the following composition: 12.6% phosphatidylcholine (PC), 33.1% phosphatidylethanolamine (PE), 18.5% phosphatidylserine (PS), 4.1% phosphatidylinositol (PI), 0.8% phosphatidic acid and 30.9% of other compounds.
The effective permeability (Pe) after 4 hours was calculated using equation 2 and the percentage of transport was calculated using equation 3:
[formula] wherein: t is time (h) CA(t) is the compound concentration in the acceptor well at time t and CD(to) is the compound concentration in the donor well at to.

POP = POP (Homo sapiens (Human), UniProt P48147); settings: non-competitive POP inhibitor; Park D H et al., Fitoterapia 2010; read-out: IC50 (POP inhibition); cited from earlier work
Chain of POP (P48147 whole entry): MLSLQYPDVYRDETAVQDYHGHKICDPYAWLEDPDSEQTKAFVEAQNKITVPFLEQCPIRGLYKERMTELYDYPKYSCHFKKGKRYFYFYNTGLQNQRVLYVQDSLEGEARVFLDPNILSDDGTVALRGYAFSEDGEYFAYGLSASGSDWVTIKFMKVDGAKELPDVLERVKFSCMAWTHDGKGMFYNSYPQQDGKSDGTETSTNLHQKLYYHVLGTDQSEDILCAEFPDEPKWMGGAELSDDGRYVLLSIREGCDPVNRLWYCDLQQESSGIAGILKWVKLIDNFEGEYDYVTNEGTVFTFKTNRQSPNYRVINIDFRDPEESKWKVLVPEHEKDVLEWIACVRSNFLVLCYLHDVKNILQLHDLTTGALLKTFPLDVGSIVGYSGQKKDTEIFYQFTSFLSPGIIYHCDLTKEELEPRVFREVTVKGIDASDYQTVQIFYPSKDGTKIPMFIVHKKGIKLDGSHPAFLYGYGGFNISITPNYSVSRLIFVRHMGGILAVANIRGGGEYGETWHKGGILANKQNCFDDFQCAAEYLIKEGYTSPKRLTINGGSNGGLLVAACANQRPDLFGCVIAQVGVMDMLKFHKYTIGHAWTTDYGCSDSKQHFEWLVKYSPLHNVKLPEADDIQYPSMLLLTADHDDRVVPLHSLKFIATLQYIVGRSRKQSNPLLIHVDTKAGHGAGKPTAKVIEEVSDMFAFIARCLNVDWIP

Chain of human prolyl oligopeptidase (P48147 whole entry): as above

| pIC50 [1] | % T (percentage of transport) [2] | Papp at 4 h, 200 μM [2] | SMILES | pIC50 (POP) |
| --- | --- | --- | --- | --- |
| 8.35 | 2.64% | 1.29 ×10⁻⁶ cm/s | N#C[C@@H]1CCCN1C(=O)[C@@H]1CC(F)(F)CN1C(=O)c1ccc(OCc2ccccc2)c(C(F)(F)F)c1 [Example 20, (S)-1-((S)-1-(4-(benzyloxy)-3-(trifluoromethyl)benzoyl)-4,4-difluoropyrrolidine-2-carbonyl)pyrrolidine-2-carbonitrile] |  |
| 8.30 | 10.43% | 5.57 ×10⁻⁶ cm/s | N#C[C@@H]1CCCN1C(=O)[C@@H]1CC(F)(F)CN1C(=O)c1ccc(OCc2ccccc2)c(F)c1 [Example 21, (S)-1-((S)-1-(4-(benzyloxy)-3-fluorobenzoyl)-4,4-difluoropyrrolidine-2-carbonyl)pyrrolidine-2-carbonitrile] |  |
|  |  |  | O=C(/C=C/c1ccc(O)c(O)c1)O[C@H](Cc1ccc(O)c(O)c1)C(=O)O [rosmarinic acid] | 4.20 |

Reference: US10125097B2, “1- [1-(benzoyl)-pyrrolidine-2-carbonyl]-pyrrolidine-2-carbonitrile derivatives” (UNIVERSITAT DE BARCELONA, priority 2012, dated 2018)
